Columns and labels:
[1] = Protein binding in human liver microsomes by LC-MS analysis based ultracentrifugation assay; assay type: ADME, Microsome; details: read-out: PB (converted)
[2] = Cmax in Swiss mouse blood at 18.3 mg/kg, po via gavage measured up to 24 hrs by UPLC-MS analysis; assay type: ADME, organism-based; design: dose 18.3 mg/kg, route oral; details: in vivo
[3] = Apparent half life in Swiss mouse at 50 mg/kg, po via gavage measured up to 24 hrs by UPLC-MS analysis; assay type: ADME, organism-based; details: in vivo
[4] = Cmax in Sprague-Dawley rat at 3 mg/kg, po administered via gavage measured up to 24 hrs by LC-MS analysis; assay type: ADME, organism-based; design: dose 3 mg/kg, route oral; details: in vivo
CYP3A4/5 [5] = target: T1, CYP3A4/5 (Homo sapiens, UniProt P08684+P20815); test: in vitro; details: liver microsomes, probe midazolam
CYP3A4/5 [6] = target: T1, CYP3A4/5; test: in vitro; details: liver microsomes, probe midazolam; remark: listed apart in the source

With `Cc1c(Cc2ccc(C(F)(F)F)nc2)c[nH]c1C(=O)NC1CC1` the fraction unbound [1] was 0.701, the Cmax [2] was 6.7 µM and the “t1/2(app)” value [3] was 3.6 h. The Cmax [4] was 1.7 µM, the IC50 (CYP3A4/5 [5]) was > 20 µM and the IC50 (CYP3A4/5 [6]) was > 20 µM.

From ChEMBL document CHEMBL4602703, “Lead Optimization of a Pyrrole-Based Dihydroorotate Dehydrogenase Inhibitor Series for the Treatment of Malaria” (J Med Chem, 2020)
